Results taken from patent US20070015737A1, “Compounds for inhibiting diseases and preparing cells for transplantation” (Neurochem (International) Limited, priority 1999, published 2007).

What was measured:
Type in all cases: biochemical
IAPP [1] = target: T1, IAPP (Homo sapiens, UniProt P10997); experiment: Rate of amyloid fibril formation by Thioflavine T spectroscopy (Example 1); details: Thioflavine T fluorescence
T1 sequence (P10997 34-70 limits assumed): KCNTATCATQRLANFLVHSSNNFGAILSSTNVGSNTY
Experimental: Determination of the Rate of Amyloid Fibril Formation by Thioflavine T Spectroscopy
Detection of ThT fluorescence can be used as a sensitive assay for amyloid fibril formation under different conditions. This assay has been used in experiments to determine the effects of compounds of the invention on amyloid fibril formation.
Human IAPP was dissolved in 40% trifluoroethanol and freeze-dried into conveniently-sized aliquots. IAPP was prepared immediately before the measurements by dissolving in 40% 1,1,1,3,3,3-hexafluoro-2-propanol (HFIP) in water to maintain the peptide in alpha helical conformation and soluble. A stock solution of ThT (2.5 mM) was prepared, 7.9 mg in 10 mL Tris-HCl pH 7.0 and filtered (0.22 μm). Solutions were kept in the dark until use. Fluorescence was examined at 440 nm excitation (slit 5 nm), and emission at 482 nm (slit 10 nm) with stirring. […] of ThT stock (final concentration 62.5 μM) was added to peptide sample and made up to 1 mL in the cuvette. The sample was stirred for 5 min. before taking a reading. Measurements were made at an initial time point (5 min. from sample preparation), at intervals over the next 4-6 h and after overnight incubation at room temperature.

IAPP [2] = target: T1, IAPP; experiment: Circular dichroism analysis of β-sheet conformation (Example 2); design: add 10 μL of 10 mg/mL IAPP stock solution (final 100 μg peptide); details: changes in ellipticity at 218 nm (β-sheet conformation); peptide:compound 1:10
Experimental: Circular dichroism analysis was conducted to confirm the activity of certain therapeutic compounds in preventing or inhibiting IAPP-associated fibril formation in accordance with the present disclosure by determining the presence or absence of β-sheet conformation.
The assay, a co-incubation procedure, examines the ability of a compound or substance to inhibit the assembly of amyloid fibrils, e.g., to test for the presence of the amyloidotic b-sheet conformation in the presence of soluble IAPP. Samples are run in the presence and absence (i.e., water alone) of buffering agent, which is done to determine if competitive effects are seen with the ionic buffer (usually phosphate).
Add components used at a molar ratio of 1:10 [peptide:compound]; add 10 μL of 10 mg/mL IAPP stock solution (final 100 μg peptide) to the aqueous solution containing compound to a final volume of 400 μl. The pH of the final assay solution is measured to ensure there is no fluctuation and the spectrum is accumulated using the parameters as shown above.
Add desired amount of compound to achieve a 1:10 molar ratio in 10 mM phosphate buffer, pH 7. Add 10 μL of 10 mg/mL IAPP stock solution (final peptide 100 μg) to the phosphate buffered solution containing the compound and bring to a final volume of 400 μL. The pH of the final assay solution is measured to ensure there is no fluctuation and the spectrum is accumulated using the parameters as shown above.
In both assays, a control sample is run with each test group. This control contains peptide only in water or buffer at a similar final volume of 400 μl. Spectra for the control are collected initially (first run) and at the end of the test (final run) to ensure that the peptide has not undergone extensive aggregation during the course of the assay. Spectra for the controls are used to compare with the measurements obtained with the treated samples.
Make fresh 1 mg/mL stock solution of IAPP in 10 mM phosphate buffer, pH 7. Add desired amount of compound to achieve a 1:10 molar ratio in 10 mM phosphate buffer, pH 7. Incubate for 3 days at room temperature. Make up to final volume of 400 μL with 10 mM phosphate buffer, pH 7. The pH of the final assay solution is measured to ensure there is no fluctuation and the spectrum is accumulated using the parameters as shown above. A similar control is run for comparative purposes.
Plots of the spectra (control and treated) are individually assembled and the changes in ellipticity at 218 nm are examined. This minimum is directly correlated with the amount of peptide in β-sheet conformation present in the sample. Changes in either a positive or negative direction are noted and a relative value (“active” or “not active”) assigned to the compound as a measure of activity.

Human IAPP (hIAPP) = target: T2, Human IAPP (hIAPP) (Homo sapiens, UniProt P10997); experiment: ELISA assay for quantitative determination of fibril formation (Example 4); details: for proportion of non-fibrillar IAPP in the supernatant: IAPP 20 μM, inhibitor:IAPP molar ratio 10:1, compared to control
T2 construct: Human IAPP (hIAPP) was synthesised by solid state synthesis (Advanced Biotechnologies, UK); purchased Advanced Biotechnologies, UK; host or cells: chemical solid-phase synthesis
T2 sequence (P10997 34-70 limits assumed): T1 sequence (P10997 34-70 limits assumed)
Experimental: ELISA Assay for Quantitative Determination of Fibril Formation
Human IAPP (hIAPP) was synthesised by solid state synthesis (Advanced Biotechnologies, UK). Human IAPP forms fibrils immediately in aqueous media. Aliquots of IAPP in water (800 μg/ml) were stored frozen at −20° C. until use. These samples contain small numbers of fibrils visible with electron microscopy (em).
Two sets of samples containing IAPP (20 μM) with or without inhibitors (at a molar ratio of 10:1 with IAPP, (20 μM)) were prepared on day 1 in Tris buffer. One set was centrifuged, the supernatant removed and frozen immediately at −20° C. (Time zero time point). The other set was incubated overnight at room temp with shaking (time 24 h time point). On day 2 these samples were spun and supernatant removed to determine the proportion of non-fibrillar IAPP.
To assay IAPP in the supernatant both sets of samples were serially diluted in bicarbonate coating buffer, added to ELISA wells and incubated overnight. Plates were washed in phosphate buffer containing Tween (PBS/Tw)×3. Diluted antiserum raised against human IAPP was incubated on the plate for 90 minutes at 37° C. Following washing in PBS/Tw, alkaline phosphatase conjugated anti-rabbit antisera was incubated for 90 mins. Following washing in PBS/Tw, alkaline phosphate substrate was added and colour allowed to develop for 30 mins. Optical density was read at 405 nm.
Data from all samples was calculated to determine changes of IAPP concentration in the supernatant induced by the candidate substance immediately (i.e. at time zero) or after 24 h incubation. Data in FIG. 1 is expressed as the proportion of non-fibrillar IAPP in the supernatant of test samples compared to control at both time points.

IAPP [3] = target: T1, IAPP; experiment: Circular dichroic spectroscopy (Example 6)
Experimental: Circular Dichroic Spectroscopy
Human IAPP was prepared in 100% HFIP at 1 mg/ml filtered through a 0.31 μm filter, freeze dried in aliquots, resuspended in 20% HFIP and water, and filtered before analysis. The circular dichroic spectroscopy was performed in the same manner as described in Hubbard et al (1991) Biochem J, 275, 785-8. Samples were analysed immediately and after 24 h incubation with candidate substances i, iii, iv and x. […] After 24 h incubation the molecular conformation of IAPP (CNTL) was converted to β-conformation. […] This is prevented by the candidate compounds.

[4] = after 24 h incubation, IAPP alone converted to β-conformation

| SMILES | IAPP-associated fibril assembly (IAPP [1]) | Activity (IAPP [2]) | proportion of non-fibrillar IAPP in the supernatant (Human IAPP (hIAPP)) | molecular conformation of IAPP (CD spectra) (IAPP [3]; [4]) | molecular conformation of IAPP (CD spectra) (IAPP [3]; time zero) | time point at which the increase of non-fibrillar IAPP was greater (Human IAPP (hIAPP); time zero versus time 24 h) |
| --- | --- | --- | --- | --- | --- | --- |
| c1ccc2c(c1)CCNC2 [1,2,3,4-tetrahydroisoquinoline] | inhibit or prevent IAPP-associated fibril assembly | – | – | – | – | – |
| O=S(=O)(O)CCCNCCCO [3-(3-hydroxy-1-propyl)amino-1-propanesulfonic acid] | inhibit or prevent IAPP-associated fibril assembly | Active | – | – | – | – |
| NCC(O)CS(=O)(=O)O (stereo not shown) [3-amino-2-hydroxy-1-propanesulfonic acid] | inhibit or prevent IAPP-associated fibril assembly | Active | – | – | – | – |
| CN(C)CCCS(=O)(=O)O [3-dimethylamino-1-propanesulfonic acid] | inhibit or prevent IAPP-associated fibril assembly | Active | – | – | – | – |
| COc1ccc(S(=O)(=O)O)c2cccnc12 [8-methoxyquinoline-5-sulfonic acid] | inhibit or prevent IAPP-associated fibril assembly | – | – | – | – | – |
| O=S(=O)(O)NC1CCCCC1 [cyclohexylsulfamic acid] | inhibit or prevent IAPP-associated fibril assembly | – | – | – | – | – |
| O=S(=O)(O)CCCNCCCO [i, 3-(3-hydroxy-1-propyl)amino-1-propanesulfonic acid] | – | – | increase the proportion of non-fibrillar IAPP in the supernatant | remained in α-conformation | typical CD spectra for α-conformation | – |
| c1ccc2c(c1)CCNC2 [iii, 1,2,3,4-tetrahydroisoquinoline] | – | Active | increase the proportion of non-fibrillar IAPP in the supernatant | remained in α-conformation | typical CD spectra for α-conformation | – |
| O=S(=O)(O)NC1CCCCC1 [iv, Cyclohexylsulfamic acid] | – | Active | increase the proportion of non-fibrillar IAPP in the supernatant | remained in α-conformation | typical CD spectra for α-conformation | – |
| NCC(O)CS(=O)(=O)O (stereo not shown) [ix, 3-amino-2-hydroxy-1-propanesulfonic acid] | – | – | increase the proportion of non-fibrillar IAPP in the supernatant | – | – | – |
| N[C@@H](COP(=O)(O)O)C(=O)O [v, O-Phospho-L-serine] | inhibit or prevent IAPP-associated fibril assembly | Active | increase the proportion of non-fibrillar IAPP in the supernatant | – | – | – |
| O=S(=O)(O)CCCN1CC=C(c2ccccc2)CC1 [viii, 4-phenyl-1-(3′ sulfopropyl)-1,2,3,6-tetrahydropyridine] | inhibit or prevent IAPP-associated fibril assembly | Active | increase the proportion of non-fibrillar IAPP in the supernatant | – | – | – |
| CN(C)CCCS(=O)(=O)O [x, 3-dimethylamino-1-propanesulfonic acid] | – | – | increase the proportion of non-fibrillar IAPP in the supernatant | remained in α-conformation | typical CD spectra for α-conformation | greater at time zero |
